Reference: patent publication US20160136229A1, “MATERIALS FOR POSITIVE CATHEPSIN B MODULATION AND METHODS OF USE FOR TREATING MILD COGNITIVE IMPAIRMENT (MCI), EARLY DEMENTIA, A-SYNUCLEINOPATHY, TRAUMATIC BRAIN INJURY, CARDIOMYOPATHY, EYE DISEASE AND SKIN DAMAGE” (University of North Carolina at Pembroke, priority 2013, published 2016)

Columns and labels:
[1] = molecular target: T1, active form of cathepsin B (Mus musculus, UniProt P10605); assay: Active cathepsin B immunoblot in CNS regions of A53T α-synuclein transgenic mice; type: in vivo; details: i.p., 18 mg/kg/day
T1 construct: from tissue; host or cells: brain and CNS regions of mice (PADK-treated mice, A53T transgenic and wild-type mice, C57BL/6 mice)
Description: FIG. 4. Enhancing lysosome efficiency with the cathepsin B modulator PADK leads to reductions of multiple types of proteinopathy-related accumulation events. […] Age-matched wild-type mice (wt) and 9-10-month mutant human APP mice, a model of early dementia, treated with or without PADK were assessed for the 4-kDa Δβ peptide, the active form of cathepsin B (act CB), and other proteins in hippocampal samples (C). Similar treatment groups used another APP mouse model at 20-22 months of age to measure clearance of APP carboxyterminal fragments APP-αCTF and APP-βCTF (D). Rat hippocampal slice cultures from the untreated control group (con) and slices treated with submicromolar Δβ42 (early tauopathy model) in the absence or presence of PADK (5 μM for 4 days) were assessed for phosphorylated tau (pTau) and other proteins (E). For a model of early α-synucleinopathy, human A53T α-synuclein transgenic mice, at 7 months old, were studied with or without PADK treatment and assessed for human α-synuclein (α-syn) in TX-100 extracts of hippocampus and for other proteins in hippocampal homogenates (F). Plotted data (±SEM) were compared to neighboring vehicle groups by unpaired t-tests: *p=0.02, **p<0.01, ***p<0.001. APPswind and APP-PS1 mice are described in Butler et al., (2011), the entire content of which is hereby incorporated herein by reference.
FIG. 6. […]

intracellular Aβ1-42 = assay: Intracellular Aβ1-42 in pyramidal neurons of APPswe/PS1ΔE9 transgenic mice; type: in vivo, mouse; details: PADK-treated APPswe/PS1ΔE9 transgenic mice; CA1
Text: FIG. 1. Lysosomal modulation increases the cathepsin B content of lysosomes and reduces intracellular Δβ1-42 in the APPswe/PS1ΔE9 transgenic mouse model of Alzheimer's disease. […] Without wishing to be bound by any scientific theory, the latter steps may involve processing/trafficking of active intermediate (intCB) and mature forms (matCB) from early/late endosomes to lysosomes in order to promote protein degradation (A). […] The increase in organellar cathepsin B enzyme (red) in PADK-treated APPswe/PS1ΔE9 transgenic mice (tg) was associated with a decrease in intracellular Δβ1-42 in the CA1 pyramidal neurons (C). Arrows denote co-localization in lysosomes, capturing intact Δβ1-42 before being degraded by cathepsin B. View-field widths: 12 μm. wt, vehicle-treated wild-type mice.
The lysosomal modulator Z-Phe-Ala-diazomethylketone (PADK) is administered to APPswe/PS1ΔE9 transgenic mice. Low-level PADK enhances cathepsin trafficking and maturation, thereby improving the clearance capacity of lysosomes (FIG. 1). It attenuates both PHF-tau and synaptic decline in the hippocampal slice model of protein accumulation (Bendiske and Bahr, 2003; Butler et al., 2005; Bahr, 2009). […] In PADK-treated transgenic mice, the increase in organellar cathepsin B was associated with a decrease in intracellular Aβ1-42 in pyramidal neurons (FIG. 1C).

[2] = molecular target: T2, 30-kDa active form of cathepsin B (Rattus norvegicus, UniProt P00787); assay: Active cathepsin B immunoblot in brain, eye and skin after oral dosing in rats; type: in vivo
T2 construct: assessed by immunoblot to label the 30-kDa active form of cathepsin B; from tissue; host or cells: Fischer rat brain regions (A5); rat brain regions, eye and skin after oral dosing (A18); rat organotypic heart slice cultures (A17)
Description: FIG. 10. The modulatory compound PADK up-regulates active cathepsin B in brain, eyes, and skin after oral dosing in rats. […] Four different brain regions were dissected and homogenates prepared, and equal protein aliquots were assessed by immunoblot to label the 30-kDa active form of cathepsin B (FC=frontal cortex).

cathepsin B = cathepsin B (Mus musculus, UniProt P10605); assay: Cathepsin B species immunoblot in heart tissue of A53T mice; type: in vivo; set-up: heart tissue was obtained to test for changes in cathepsin B; from tissue; host or cells: mouse heart, wild-type and A53T transgenic (A16); details: A53T mice; i.p., 18 mg/kg/day
Description: FIG. 8. PADK also enhances cathepsin B species in the heart. The A53T early α-synucleinopathy mouse model was injected daily with vehicle or PADK (i.p., 18 mg/kg/day) to test for changes in heart tissue. […] Positions of molecular weight standards (kDa) are shown on the left side of the immunoblot. (B) In the lower graph, ratios between CB-30 and CB-105 (mean±SEM) provide a good example of the unique PADK effect on cathepsin B species in the heart. **P<0.01 as compared to vehicle-treated A53T mice.
Ratio measures between the 30-kDa form and the 105-kDa species indicate a unique PADK effect on cathepsin B species in the heart (FIG. 8 bar graph).

[3] = oral, peanut butter mixture, 15 mg/kg twice a day, 10 days

T2 sequence (P00787 80-333 limits assumed): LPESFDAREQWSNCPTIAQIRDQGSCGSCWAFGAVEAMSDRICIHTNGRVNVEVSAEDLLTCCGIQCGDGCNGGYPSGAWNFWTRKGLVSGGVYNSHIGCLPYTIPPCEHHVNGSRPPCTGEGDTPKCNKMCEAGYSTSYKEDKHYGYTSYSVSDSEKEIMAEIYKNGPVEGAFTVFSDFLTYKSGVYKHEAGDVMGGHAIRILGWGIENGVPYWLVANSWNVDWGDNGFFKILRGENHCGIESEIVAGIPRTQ
T1 sequence (P10605 80-333 limits assumed): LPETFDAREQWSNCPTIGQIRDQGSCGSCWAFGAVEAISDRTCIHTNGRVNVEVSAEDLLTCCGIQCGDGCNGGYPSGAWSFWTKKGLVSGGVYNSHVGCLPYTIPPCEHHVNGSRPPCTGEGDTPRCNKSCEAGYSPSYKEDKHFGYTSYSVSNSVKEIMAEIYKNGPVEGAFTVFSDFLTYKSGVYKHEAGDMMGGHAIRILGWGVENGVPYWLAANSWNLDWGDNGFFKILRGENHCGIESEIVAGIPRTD
cathepsin B, sequence (P10605 80-333): as the sequence (P10605 80-333 limits assumed) above

**Q.** Which “active CatB levels increase in brains” value ([1]; 7-8 months) does the source give for C[C@H](NC(=O)[C@H](Cc1ccccc1)NC(=O)OCc1ccccc1)C(=O)C=[N+]=[N-] [PADK, N-carbobenzyloxy-L-phenylalanyl-L-alanyl-diazomethylketone] here?
**A.** 3-6 fold

**Q.** What about the “active form of cathepsin B across CNS regions (immunoblot)” value ([1]; 7 months, p<0.02 vs vehicle-treated tg) of the same molecule?
**A.** robust PADK-mediated increase

**Q.** And the “intracellular Aβ1-42 in pyramidal neurons” value (intracellular Aβ1-42)?
**A.** decrease

**Q.** What about the “BBB crossing after oral dosing” value ([2]; inferred from enhanced active cathepsin B in brain regions after 10 days of 15 mg PADK/kg/0.5 day) of the same molecule?
**A.** crossing the BBB

**Q.** What about the “active cathepsin B in brain” value [2, 3] of the same molecule?
**A.** up-regulate

**Q.** What about the “active cathepsin B in eye tissue” value [2, 3] of the same molecule?
**A.** significant increases

**Q.** And the “active cathepsin B in skin tissue” value [2, 3]?
**A.** significant increases

**Q.** And the “active form of cathepsin B (CB-30) in heart” value (cathepsin B)?
**A.** robust PADK-mediated increase
